The text below walks through data of patent publication US5354749A, “Sulfonylbenzyl-substituted benzo- and pyridopyridones” (Bayer Aktiengesellschaft, priority 1992, dated 1994).

The structures appear in SMILES notation.

In experiment [1] the test system is angiotensin II-induced contraction of the isolated rabbit aorta. Nature of the experiment: Inhibition of angiotensin II-induced contraction (vasoconstriction) on isolated aortic rings from rabbits in vitro. The note with it: at 3rd = submaximum agonist concentration. Here is the method:
Rabbits of both sexes are stunned by a blow to the neck and exsanguinated, or optionally anaesthetised with Nembutal (about 60-80 mg/kg i.v.) and sacrificed by opening the thorax. The thoracic aorta is removed, freed from adhering connective tissue and divided into ring segments 1.5 mm wide, and these are introduced individually, under an initial load of about 3.5 g, into 10 ml organ baths with carbogen-gassed Krebs-Henseleit nutrient solution thermostatically controlled at 37° C. and having the following composition: 119 mmol/l of NaCl; 2.5 mmol/l of CaCl2 ×2 H2 O; 1.2 mmol/l of KH2 PO4; 10 mmol/l of glucose; 4.8 mmol/l of KCl; 1.4 mmol/l of MgSO4 ×7 H2 O and 25 mmol/l of NaHCO3.
The contractions are recorded isometrically by Statham UC2 cells via a bridge amplifier (from Mulheim or DSM Aalen) and digitised and evaluated by means of an A/D converter (System 570, Keithley Munich). The agonist dose/effect curves (DEC) are plotted hourly. For each DEC, 3 or 4 individual concentrations are applied to the baths at intervals of 4 minutes. At the end of the DEC and the subsequent wash-out cycles (16 times for in each case about 5 seconds/minute with the abovementioned nutrient solution), a 28-minute rest or incubation phase follows, within which the contractions as a rule reach the starting value again. […]

In a further experiment the target is T1, Angiotensin II receptor (Bos taurus, UniProt P25104).
T1 construct: carried out on partially purified membrane fractions of bovine AC with radioactive angiotensin II; from tissue; host or cells: bovine adrenal cortex, partially purified membrane fractions
T1 sequence (P25104 1-359): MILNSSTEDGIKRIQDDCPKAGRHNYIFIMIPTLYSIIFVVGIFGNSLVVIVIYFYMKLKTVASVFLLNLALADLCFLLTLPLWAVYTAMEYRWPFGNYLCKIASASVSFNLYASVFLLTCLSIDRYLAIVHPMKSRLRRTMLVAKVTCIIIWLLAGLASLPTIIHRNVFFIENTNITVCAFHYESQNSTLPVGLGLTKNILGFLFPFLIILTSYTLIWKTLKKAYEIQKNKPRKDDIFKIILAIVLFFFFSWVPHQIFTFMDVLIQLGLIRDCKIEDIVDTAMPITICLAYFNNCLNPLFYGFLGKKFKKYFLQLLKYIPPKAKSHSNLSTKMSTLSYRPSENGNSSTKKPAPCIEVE
Nature of the experiment: Angiotensin II receptor binding on membrane fractions of the adrenal cortex (3H-angiotensin II). The note with it: bovine adrenal cortex membranes; 3H-angiotensin II 3-5 nM; 60 minutes, room temperature. How it is done:
Bovine adrenal cortices (AC) which are freshly removed and thoroughly freed from medulla of the capsule are comminuted in sucrose solution (0.32 M) with the aid of an Ultra-Turrax (Janke & Kunkel, Staufen i.B.) to give a coarse membrane homogenate, which is partially purified in two centrifugation steps to give membrane fractions. The investigations in receptor binding are carried out on partially purified membrane fractions of bovine AC with radioactive angiotensin II in an assay volume of 0.25 ml which contains, specifically, the partially purified membranes (50-80 μg), ^3 H-angiotensin II (3-5 nM), test buffer solution (50 mM Tris, pH 7.2) 5 mM MgCl2 and the substances to be investigated. After an incubation time of 60 minutes at room temperature, the non-bound radioactivity of the samples is separated off by means of moistened glass fibre filters (Whatman GF/C) and the bound radioactivity is measured […] in a scintillation cocktail, after the protein has been washed with ice-cold buffer solution (50 mM Tris/HCl, pH 7.4, 5% PEG 6000). The raw data were analysed with computer programs to give Ki and IC50 values (Ki : IC50 values corrected for the radioactivity used; IC50 values: concentration at which the substance to be investigated causes 50% inhibition of the specific binding of the radioligand).

`CCCCc1cc2ccccc2c(=O)n1Cc1ccc(S(=O)(=O)N2CCCC2C(=O)O)cc1Cl` (centres unmarked) [Example 2, N-4-[3-Butyl-1,2-dihydro-1-oxo-isoquinolin-2-yl-methyl]3-chlorophenylsulphonylproline]: in experiment [1], the IC50 amounted to 660 nM. Further, the affinity on Angiotensin II receptor, expressed as Ki, was 1700 nM.

The term IC50 denotes the concentration needed to halve the response being measured. A low value points to greater potency. Broadly, the Ki is a dissociation constant, usually derived from enzyme kinetics or from competition with a known ligand.
